Legend:
[1] = system: HeLa cells stably expressing GFP-LC3; assay: GFP-LC3 puncta quantitation (autophagy); format: cell-based
Description: We used well-established assays to assess their autophagic activity,^45 including (i) quantitation of GFP-LC3 puncta (which label autophagosomes) in the presence and absence of the lysosomal inhibitor, bafilomycin A1 (Baf A1), and (ii) western blot analysis of the conversion of LC3-I to the lipidated, autophagosomal-associated protein, LC3-II in the presence and absence of Baf A1. […] Shorter durations of lower concentrations of compounds (10 μM) also produced similar results. […] Thus, these compounds induce autophagic flux in HeLa cells.
(§1) We assessed whether the induction of autophagy by SW063058 and SW076956 requires Beclin 1 and Bcl-2 using siRNA to knockdown each protein, respectively, in HeLa, cells.

BH3 domain of Bax/Bcl-2 = BH3 domain of Bax/Bcl-2 (Homo sapiens (Human), UniProt P10415); assay: Bax BH3 peptide/Bcl-2 AlphaLISA; format: binding; settings: AlphaLISA with BH3 peptide
Chain of BH3 domain of Bax/Bcl-2 (P10415 1-218): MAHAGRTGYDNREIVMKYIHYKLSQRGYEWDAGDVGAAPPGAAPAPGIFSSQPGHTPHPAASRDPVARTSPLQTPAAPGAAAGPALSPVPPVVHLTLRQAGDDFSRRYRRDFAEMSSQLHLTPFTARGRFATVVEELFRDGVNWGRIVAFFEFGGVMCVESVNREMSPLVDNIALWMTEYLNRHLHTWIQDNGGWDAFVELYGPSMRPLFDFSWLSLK
Source text: (§2) To assess selectivity for disruption of binding of the BH3 domain of Beclin 1 to Bcl-2 as compared to that of a pro-apoptotic Bcl-2 family member, we used an AlphaLISA with purified recombinant Bcl-2 and peptides spanning either the BH3 domain (amino acids 105-130) of Beclin 1 or the BH3 domain (amino acids 49-84) of Bax.
(§3) The Beclin 1 BH3 peptide consists of an N-terminally linked biotin, a YGGGGS linker, and […] (a.a. 105-130) derived from human Beclin 1. Bax BH3 peptide consists of an N-terminally linked biotin, a YGGGGS linker, and 36 amino acids (a.a. 49-84) derived from human Bax. Biotin-6xHis control peptide consists of an N-terminally linked biotin, a YGGGGS linker, and a 6xHis tag at C-terminus.
(§4) For dose-response AlphaLISA experiments, compounds were serially diluted (2-fold, 7 point) with DMSO and added to BB buffer containing purified recombinant proteins or biotinylated peptides at a final concentration range of 10 μM to 156 nM. Protein or peptide concentrations used in dose-response AlphaLISA experiments were as follows: Beclin1/Bcl-2—300 nM/60 nM; SUMO (internal control for Beclin 1/Bcl-2 AlphaLISA)—20 nM; Beclin 1 BH3/Bcl-2—1000 nM/60 nM; Bax BH3/Bcl-2—100 nM/20 nM; Biotin-6xHis (internal control for BH3/Bcl-2 AlphaLISA)—10

[2] = system: HeLa cells that overexpress Bcl-2; assay: CellTiter-Glo cell death in Bcl-2 overexpressing cells; format: cell-based
[3] = target: BH3 domain of Beclin 1/Bcl-2 (Homo sapiens (Human), UniProt P10415); assay: Beclin 1 BH3 peptide/Bcl-2 AlphaLISA; format: binding; settings: AlphaLISA with BH3 peptide
Chain of BH3 domain of Beclin 1/Bcl-2 (P10415 1-218): as above
Source text: as §2, §3, §4

[4] = target: Bim/Myc-Bcl-2 interaction (Homo sapiens (Human), UniProt P10415); assay: Co-immunoprecipitation of Bim with Myc-Bcl-2 in HeLa cells; format: cell-based; settings: 12 h treatment
Chain of Bim/Myc-Bcl-2 interaction (P10415 whole entry): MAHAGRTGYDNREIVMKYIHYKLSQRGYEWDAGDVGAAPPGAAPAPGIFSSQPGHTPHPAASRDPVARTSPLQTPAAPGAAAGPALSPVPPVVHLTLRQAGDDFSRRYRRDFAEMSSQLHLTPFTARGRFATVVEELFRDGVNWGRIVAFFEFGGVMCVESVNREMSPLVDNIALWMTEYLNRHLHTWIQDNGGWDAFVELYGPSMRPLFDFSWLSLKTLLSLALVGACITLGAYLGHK
Source text: For the two compounds for which we had sufficient supply for large-scale tissue culture experiments (SW063058 and SW076956), we examined their effects on Beclin 1, Bax, and Bim co-immunoprecipitation with Bcl-2.

[5] = target: T1, Beclin 1/Bcl-2 interaction (Homo sapiens (Human), UniProt P10415); assay: Beclin 1/Bcl-2 AlphaLISA assay (dose-response); format: binding; settings: positive control
Source text: We also developed a high-throughput Beclin 1/Bcl-2 AlphaLISA assay to directly measure the in vitro interaction between Beclin 1 and Bcl-2. AlphaLISA is a bead-based proximity assay that is capable of measuring protein-protein interaction in homogeneous solution.^41 Oxygen singlet molecules are generated by Alpha donor beads upon irradiation at 680 nm and travel to acceptor beads in proximity. […] Thus, a measurable Alpha luminescence signal requires chemical energy transfer between the donor and acceptor beads, and a pair of interacting molecules immobilized on the beads stabilizes bead association to produce measurable Alpha signals.
We used purified recombinant Beclin 1 and Bcl-2 proteins for AlphaLISA, which were optimized for enhanced solubility and expression. Human Beclin 1 was expressed as a fusion protein with StrepII-SUMO at the N-terminus, and three residues on the aromatic finger of Beclin 1 were mutated (F359D/F360D/W361D) to improve solubility and protein stability.^42 These mutations are in the BARA domain, which is far from the BH3 motif recognized by Bcl-2. A recombinant Bcl-2-binding deficient mutant of Beclin 1 (StrepII-SUMO-Beclin 1^ΔBcl-2BD) was used as a negative control. […] For a normalization control, we included a parallel AlphaLISA assay with purified SUMO protein (with an N-terminal StrepII tag and a C-terminal 6xHis tag). The purpose of a normalization control is to eliminate inner filter (false-positive) hits that reduce luminescence signal by interfering with the AlphaLISA assay in ways that are unrelated to the Beclin 1/Bcl-2 interaction. With the normalization control, the interaction of Beclin 1 and Bcl-2 was measured as follows:
All AlphaLISA assays were performed in triplicate in a 384-well format with BB buffer (phosphate-buffered saline supplemented with 0.5% BSA and 1 mM DTT). For the Beclin 1/Bcl-2 AlphaLISA, purified StrepII-SUMO-Beclin 1 was incubated with Bcl-2-6xHis proteins at 300 nM and 60 nM, respectively. For internal control AlphaLISA assays, StrepII-SUMO-6xHis protein (internal control) was used at 20 nM. […] Following the initial incubation, Strep-Tactin Alpha donor (AS106D) and anti-6xHis AlphaLISA acceptor beads (AL128M) were added to a final concentration of 40 μg/mL each and incubated at room temperature in the dark for an additional 1 h. All samples were evaluated in triplicate. Alpha signals were measured by an Envision plate reader (Perkin Elmer). Beclin 1/Bcl-2 Alpha signal was normalized with internal control Alpha signal. The normalized value represents the binding activity of Beclin 1 and Bcl-2. The percent activity of a compound was calculated as the following formula: […]
Protein or peptide concentrations used in dose-response AlphaLISA experiments were as follows: Beclin1/Bcl-2—300 nM/60 nM; SUMO (internal control for Beclin 1/Bcl-2 AlphaLISA)—20 nM; Beclin 1 BH3/Bcl-2—1000 nM/60 nM; Bax BH3/Bcl-2—100 nM/20 nM; Biotin-6xHis (internal control for BH3/Bcl-2 AlphaLISA)—10
Target sequence in this assay (P10415 1-218): as the sequence (P10415 1-218) above

PARP = PARP cleavage (apoptosis); format: cell-based; settings: 10 or 20 μM
[6] = target: T1, Beclin 1/Bcl-2 interaction; assay: Beclin 1/Bcl-2 split-luciferase assay in HeLa cells; format: cell-based
Target sequence in this assay (P10415 whole entry): as the sequence (P10415 whole entry) above
Source text: The split-luciferase approach relies on the reconstitution of two fragments of firefly luciferase, NLuc (amino acids 2-416) and CLuc (amino acids 398-550) expressed with proteins of interest as fusion partners. Upon the binding of interacting partners, two non-functional fragments of the luciferase are brought into proximity, forming an active luciferase protein. To measure Beclin 1/Bcl-2 interaction with the split-luciferase assay, we created HeLa cell lines expressing N-terminal NLuc-tagged Beclin 1 (NLuc-Beclin 1) and CLuc-tagged Bcl-2 (CLuc-Bcl-2) as split-luciferase reporters. […] Renilla luciferase was constitutively expressed as an internal control. The interaction of Beclin 1/Bcl-2 was measured as relative luminescence units (RLU), which was the calculated ratio of split-luciferase and Renilla luciferase signals: […]
DMSO (neutral control), ABT-737 (positive control), or the library compounds were added to a final concentration of 5 μM and incubated at 37° C. […] After 5 h of incubation, the medium was removed by centrifugation and the activity of Beclin 1/Bcl-2 split-luciferase reporters was measured with Dual-Glo® Luciferase Assay System (Promega). […] Ten microliters of 1× RL buffer (Stop & Glo Reagent) was then added to the sample, the sample was incubated at room temperature for 10 min, and the activity of Renilla luciferase was measured again. […]

HeLa cells [7] = assay: p62 levels after Beclin 1 or Bcl-2 siRNA knockdown; format: cell-based; settings: cells with either Beclin 1 or Bcl-2 knockdown
Source text: as §1

HeLa cells [8] = assay: CellTiter-Glo cytotoxicity assay; format: cell-based; settings: 20 μM

CN(C)CC[C@H](CSc1ccccc1)Nc1ccc(S(=O)(=O)NC(=O)c2ccc(N3CCN(Cc4ccccc4-c4ccc(Cl)cc4)CC3)cc2)cc1[N+](=O)[O-] [ABT-737]
GFP-LC3 puncta in Bcl-2 knockdown cells ([1]; Bcl-2 siRNA): no further increase in GFP-LC3 puncta | GFP-LC3 puncta in Beclin 1 knockdown cells ([1]; Beclin 1 siRNA): no further increase in GFP-LC3 puncta | binding of the BH3 domain of Bax to Bcl-2 (BH3 domain of Bax/Bcl-2): nanomolar efficiency | cell death in HeLa cells that overexpress Bcl-2 [2]: more pronounced dose-dependent increase in cell death | binding of the BH3 domain of Beclin 1 to Bcl-2 [3]: nanomolar efficiency | Bim/Myc-Bcl-2 interaction (co-immunoprecipitation) [4]: disrupt co-immunoprecipitation | inhibition of Beclin 1/Bcl-2 Alpha signal [5]: inhibited in a dose-dependent manner | PARP cleavage (PARP): dose-dependent increase in PARP cleavage | split-luciferase luminescence activity [6]: inhibited in a dose-dependent manner | p62 levels (HeLa cells [7]): failed to alter p62 levels | cytotoxicity (CellTiter-Glo) (HeLa cells [8]): mild cytotoxicity

From patent US11591319B2, “Small molecule inducers of autophagy” (Board of Regents, The University of Texas System, priority 2018, dated 2023)
